{"source": "patent US5663180A", "about": "“Substituted cyclopentenes for the treatment of inflammation” (G.D. Searle & Co., priority 1994, dated 1997)", "key": {"[1]": {"system": "COX II enzyme", "details": "literature report; cited from earlier work"}, "[2]": {"system": "RAT PAW EDEMA", "test": "Rat Carrageenan Foot Pad Edema Test", "details": "po, 3 h, read-out: RAT PAW EDEMA % Inhibition"}, "[3]": {"system": "hyperalgesic foot withdrawal (rat carrageenan)", "test": "Rat Carrageenan-induced Analgesia Test", "assay_type": "in vivo, Male Sprague-Dawley rats", "method": "Male Sprague-Dawley rats were treated as previously described for the Carrageenan Foot Pad Edema test. […] After an initial twenty minute period, thermal stimulation was begun on either the injected foot or on the contralateral uninjected foot. A photoelectric cell turned off the lamp and timer when light was interrupted by paw withdrawal. The time until the rat withdraws its foot was then measured. The withdrawal latency in seconds was determined for the control and drug-treated groups, and percent inhibition of the hyperalgesic foot withdrawal determined."}, "[4]": {"biological_target": "T1, HUMAN COX I (Homo sapiens, UniProt P23219)", "T1 construct": "A 2.0 kb fragment containing the coding region of either human or murine COX-I or human or murine COX-II; made in house; host or cells: SF9 insect cells (recombinant baculovirus, pVL1393); CHAPS-solubilized", "T1 sequence (P23219 24-599)": "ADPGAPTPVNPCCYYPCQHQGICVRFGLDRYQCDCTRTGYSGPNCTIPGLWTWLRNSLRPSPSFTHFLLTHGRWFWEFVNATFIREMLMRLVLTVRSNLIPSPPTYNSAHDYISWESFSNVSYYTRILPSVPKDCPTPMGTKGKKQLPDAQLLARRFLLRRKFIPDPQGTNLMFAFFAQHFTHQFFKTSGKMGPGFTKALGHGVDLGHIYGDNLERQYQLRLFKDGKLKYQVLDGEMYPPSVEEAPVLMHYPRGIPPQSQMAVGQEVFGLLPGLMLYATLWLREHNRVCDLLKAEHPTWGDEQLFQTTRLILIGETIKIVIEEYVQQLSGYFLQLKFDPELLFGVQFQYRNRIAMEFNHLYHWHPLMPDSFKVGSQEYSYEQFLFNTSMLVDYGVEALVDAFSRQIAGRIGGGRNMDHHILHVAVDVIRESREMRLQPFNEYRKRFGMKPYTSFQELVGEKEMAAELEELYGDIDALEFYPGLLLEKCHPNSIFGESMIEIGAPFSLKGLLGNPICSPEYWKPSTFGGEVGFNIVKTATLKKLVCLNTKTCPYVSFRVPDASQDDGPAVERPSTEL", "test": "COX I activity in vitro (PGE2 formed, ELISA, recombinant enzyme)", "assay_type": "biochemical", "details": "read-out: HUMAN COX I ID50"}, "[5]": {"biological_target": "T2, HUMAN COX II (Homo sapiens, UniProt P35354)", "T2 construct": "A 2.0 kb fragment containing the coding region of either human or murine COX-I or human or murine COX-II; made in house; host or cells: SF9 insect cells (recombinant baculovirus, pVL1393); CHAPS-solubilized", "T2 sequence (P35354 18-604)": "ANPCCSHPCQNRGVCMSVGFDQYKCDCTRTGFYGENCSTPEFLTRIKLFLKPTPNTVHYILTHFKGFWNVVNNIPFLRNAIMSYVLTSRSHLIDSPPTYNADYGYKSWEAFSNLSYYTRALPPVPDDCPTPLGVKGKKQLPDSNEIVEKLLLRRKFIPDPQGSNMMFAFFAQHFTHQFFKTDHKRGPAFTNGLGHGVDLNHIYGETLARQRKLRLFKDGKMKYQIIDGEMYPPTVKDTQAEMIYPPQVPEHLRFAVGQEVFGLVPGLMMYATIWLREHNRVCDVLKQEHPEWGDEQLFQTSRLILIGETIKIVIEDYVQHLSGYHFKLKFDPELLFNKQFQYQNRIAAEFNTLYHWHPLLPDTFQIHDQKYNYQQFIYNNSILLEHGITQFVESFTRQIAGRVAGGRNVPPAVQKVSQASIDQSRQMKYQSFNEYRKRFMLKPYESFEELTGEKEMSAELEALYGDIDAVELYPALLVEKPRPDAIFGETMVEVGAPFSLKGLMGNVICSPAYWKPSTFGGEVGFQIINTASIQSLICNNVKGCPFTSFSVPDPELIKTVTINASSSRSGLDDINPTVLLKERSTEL", "test": "COX II activity in vitro (PGE2 formed, ELISA, recombinant enzyme)", "assay_type": "biochemical", "details": "arachidonic acid 10 μM, 10-20 min pre-incubation, read-out: HUMAN COX II ID50", "method": "Evaluation of COX I and COX II activity in vitro\nThe COX II inhibition activity of the compounds of this invention illustrated in the Examples was determined by the following methods. a. Preparation of recombinant COX baculoviruses\nRecombinant baculoviruses were isolated by transfecting 4 μg of baculovirus transfer vector DNA into SF9 insect cells (2x10e8) along with 200 ng of linearized baculovirus plasmid DNA by the calcium phosphate method.\nAssay for COX I and COX II activity"}, "[6]": {"details": "po, 3 h, read-out: ANALGESIA % Inhibition"}, "[7]": {"details": "recombinant human COX I, arachidonic acid 10 μM, 10-20 min pre-incubation"}}, "note": "Like-named read-outs stand apart in the source and are kept apart here.", "data": [{"smiles": "COc1ccc2cc(CC(=O)O)ccc2c1", "note": "[6-methoxy-2-napthylacetic acid]", "values": [{"measurement": "inhibition of the COX II enzyme", "setting": "[1]", "result": "selectively inhibit the COX II enzyme"}]}, {"smiles": "CS(=O)(=O)c1ccc(C2=C(c3ccc(F)cc3)CCC2)cc1", "note": "[Example 1, 1-[2-(4-Fluorophenyl)cyclopenten-1-yl]-4-(methylsulfonyl)benzene]", "values": [{"measurement": "inhibition in vivo at 10 mg/kg", "setting": "[2]", "result": 32, "unit": "%"}, {"measurement": "inhibition in vivo at 20 mg/kg", "setting": "[3]; [6]", "result": 66, "unit": "%"}]}, {"smiles": "Cc1cc(F)ccc1C1=C(c2ccc(S(C)(=O)=O)cc2)CCC1", "note": "[Example 2, 1-[2-(4-Fluoro-2-methylphenyl)cyclopenten-1-yl]-4-(methylsulfonyl)benzene]", "values": [{"measurement": "inhibition in vivo at 10 mg/kg", "setting": "[2]", "result": 39, "unit": "%"}]}, {"smiles": "CS(=O)(=O)c1ccc(C2=C(c3ccc(Cl)cc3)CCC2)cc1", "note": "[Example 3, 1-[2-(4-Chlorophenyl)cyclopenten-1-yl]-4-(methylsulfonyl)benzene]", "values": [{"measurement": "inhibition in vivo at 10 mg/kg", "setting": "[2]", "result": 33, "unit": "%"}, {"measurement": "inhibition in vivo at 20 mg/kg", "setting": "[3]; [6]", "result": 41, "unit": "%"}]}, {"smiles": "CS(=O)(=O)c1ccc(C2=C(c3ccc(Cl)cc3Cl)CCC2)cc1", "note": "[Example 4, 1-[2-(2,4-Dichlorophenyl)cyclopenten-1-yl]-4-(methylsulfonyl)benzene]", "values": [{"measurement": "inhibition in vivo at 10 mg/kg", "setting": "[2]", "result": 25, "unit": "%"}]}, {"smiles": "Cc1ccc(C2=C(c3ccc(S(C)(=O)=O)cc3)CCC2)cc1", "note": "[Example 5, 1-[2-(4-Methylphenyl)cyclopenten-1-yl]-4-(methylsulfonyl)benzene]", "values": [{"measurement": "inhibition in vivo at 10 mg/kg", "setting": "[2]", "result": 16, "unit": "%"}]}, {"smiles": "CS(=O)(=O)c1ccc(C2=C(c3ccc(C(F)(F)F)cc3)CCC2)cc1", "note": "[Example 6, 1-[2-(4-Trifluoromethylphenyl)cyclopenten-1-yl]-4-(methylsulfonyl)benzene]", "values": [{"measurement": "inhibition in vivo at 10 mg/kg", "setting": "[2]", "result": 39, "unit": "%"}, {"measurement": "inhibition in vivo at 20 mg/kg", "setting": "[3]; [6]", "result": 29, "unit": "%"}]}, {"smiles": "CSc1ccc(C2=C(c3ccc(S(C)(=O)=O)cc3)CCC2)cc1", "note": "[Example 11, 1-[2-(4-Methylthiophenyl)cyclopenten-1-yl]-4-(methylsulfonyl)benzene]", "values": [{"measurement": "inhibition in vivo at 20 mg/kg", "setting": "[3]; [6]", "result": 39, "unit": "%"}]}, {"smiles": "CC1(C)CC(c2ccc(F)cc2)=C(c2ccc(S(C)(=O)=O)cc2)C1", "note": "[Example 12, 1-[2-(4-Fluorophenyl)-4,4-dimethylcyclopenten-1-yl]-4-(methylsulfonyl)benzene]", "values": [{"measurement": "inhibition in vivo at 20 mg/kg", "setting": "[2]", "result": 45, "unit": "%"}, {"measurement": "IC50", "setting": "[4]; recombinant cox-i", "result": 18.3, "unit": "µM"}]}, {"smiles": "CC1(C)CC(c2ccc(F)cc2)=C(c2ccc(S(N)(=O)=O)cc2)C1", "note": "[Example 13, 4-[2-(4-Fluorophenyl)-4,4-dimethylcyclopenten-1-yl]benzenesulfonamide]", "values": [{"measurement": "inhibition in vivo at 30 mg/kg", "setting": "[2]", "result": 34, "unit": "%"}, {"measurement": "inhibition in vivo at 30 mg/kg", "setting": "[3]; read-out: ANALGESIA % Inhibition, Assay performed at 30 mg/kg body weight (footnote 2), oral, 3 hours after carrageenan, read-out: […] % Inhibition", "result": 14, "unit": "%"}, {"measurement": "IC50", "setting": "[4]; [7]", "result": 0.5, "unit": "µM"}]}, {"smiles": "CC1(C)CC(c2ccc(Cl)cc2)=C(c2ccc(S(C)(=O)=O)cc2)C1", "note": "[Example 14, 1-[2-(4-Chlorophenyl)-4,4-dimethylcyclopenten-1-yl]-4-(methylsulfonyl)benzene]", "values": [{"measurement": "inhibition in vivo at 30 mg/kg", "setting": "[2]", "result": 31, "unit": "%"}, {"measurement": "IC50", "setting": "[4]; recombinant cox-i", "result": 1.6, "unit": "µM"}]}, {"smiles": "CC1(C)CC(c2ccc(Cl)cc2)=C(c2ccc(S(N)(=O)=O)cc2)C1", "note": "[Example 15, 4-[2-(4-Chlorophenyl)-4,4-dimethylcyclopenten-1-yl]benzenesulfonamide]", "values": [{"measurement": "inhibition in vivo at 30 mg/kg", "setting": "[2]", "result": 41, "unit": "%"}, {"measurement": "IC50", "setting": "[5]", "result": "< 0.1", "unit": "µM"}]}, {"smiles": "CCC1(CC)CC(c2ccc(F)cc2)=C(c2ccc(S(N)(=O)=O)cc2)C1", "note": "[Example 19, 4-[2-(4-Fluorophenyl)-4,4-diethylcyclopenten-1-yl]benzenesulfonamide]", "values": [{"measurement": "IC50", "setting": "[5]", "result": 3.9, "unit": "µM"}, {"measurement": "IC50", "setting": "[4]; [7]", "result": 10, "unit": "µM"}]}, {"smiles": "NS(=O)(=O)c1ccc(C2=C(c3ccc(F)cc3)CCC2)cc1", "note": "[Example 20, 4-[2-(4-Fluorophenyl)cyclopenten-1-yl]benzenesulfonamide]", "values": [{"measurement": "inhibition in vivo at 10 mg/kg", "setting": "[2]", "result": 26, "unit": "%"}, {"measurement": "inhibition in vivo at 30 mg/kg", "setting": "[3]; [6]", "result": 44, "unit": "%"}, {"measurement": "IC50", "setting": "[4]; recombinant cox-i", "result": 4.2, "unit": "µM"}]}, {"smiles": "NS(=O)(=O)c1ccc(C2=C(c3ccc(Cl)cc3)CCC2)cc1", "note": "[Example 21, 4-[2-(4-Chlorophenyl)cyclopenten-1-yl]benzenesulfonamide]", "values": [{"measurement": "IC50", "setting": "[4]; recombinant cox-i", "result": 1.3, "unit": "µM"}]}, {"smiles": "COc1ccc(C2=C(c3ccc(S(C)(=O)=O)cc3)CCC2)cc1", "note": "[Example 23, 1-[2-(4-Methoxyphenyl)cyclopenten-1-yl]-4-(methylsulfonyl)benzene]", "values": [{"measurement": "inhibition in vivo at 10 mg/kg", "setting": "[2]", "result": 22, "unit": "%"}, {"measurement": "inhibition in vivo at 30 mg/kg", "setting": "[3]; [6]", "result": 15, "unit": "%"}, {"measurement": "IC50", "setting": "[4]; recombinant cox-i", "result": 9.9, "unit": "µM"}]}, {"smiles": "CS(=O)(=O)c1ccc(C2=C(c3cccc(F)c3F)CCC2)cc1", "note": "[Example 25, 1-[2-(2,3-Difluorophenyl)cyclopenten-1-yl]-4-(methylsulfonyl)benzene]", "values": [{"measurement": "IC50", "setting": "[5]", "result": "< 0.1", "unit": "µM"}, {"measurement": "IC50", "setting": "[4]; [7]", "result": "> 100", "unit": "µM"}]}, {"smiles": "NS(=O)(=O)c1ccc(C2=C(c3cccc(F)c3F)CCC2)cc1", "note": "[Example 26, 4-[2-(2,3-Difluorophenyl)cyclopenten-1-yl]benzenesulfonamide]", "values": [{"measurement": "IC50", "setting": "[4]; [7]", "result": 3.6, "unit": "µM"}]}, {"smiles": "NS(=O)(=O)c1ccc(C2=C(c3ccc(Cl)c(Cl)c3)CCC2)cc1", "note": "[Example 28, 4-[2-(3,4-Dichlorophenyl)cyclopenten-1-yl]benzenesulfonamide]", "values": [{"measurement": "inhibition in vivo at 10 mg/kg", "setting": "[2]", "result": 10, "unit": "%"}, {"measurement": "inhibition in vivo at 30 mg/kg", "setting": "[3]; [6]", "result": 26, "unit": "%"}]}, {"smiles": "COc1ccc(C2=C(c3ccc(S(N)(=O)=O)cc3)CCC2)cc1F", "note": "[Example 30, 4-[2-(3-Fluoro-4-methoxyphenyl)cyclopenten-1-yl]benzenesulfonamide]", "values": [{"measurement": "inhibition in vivo at 30 mg/kg", "setting": "[2]", "result": 47, "unit": "%"}, {"measurement": "IC50", "setting": "[4]; recombinant cox-i", "result": 8.1, "unit": "µM"}]}, {"smiles": "COc1ccc(C2=C(c3ccc(S(N)(=O)=O)cc3)CCC2)cc1Cl", "note": "[Example 32, 4-[2-(3-Chloro-4-methoxyphenyl)cyclopenten-1-yl]benzenesulfonamide]", "values": [{"measurement": "inhibition in vivo at 10 mg/kg", "setting": "[2]", "result": 13, "unit": "%"}, {"measurement": "inhibition in vivo at 30 mg/kg", "setting": "[3]; [6]", "result": 17, "unit": "%"}]}, {"smiles": "NS(=O)(=O)c1ccc(C2=C(c3ccc(F)c(Cl)c3)CCC2)cc1", "note": "[Example 34, 4-[2-(3-Chloro-4-fluorophenyl)cyclopenten-1-yl]benzenesulfonamide]", "values": [{"measurement": "inhibition in vivo at 10 mg/kg", "setting": "[2]", "result": 37, "unit": "%"}, {"measurement": "inhibition in vivo at 30 mg/kg", "setting": "[3]; [6]", "result": 46, "unit": "%"}, {"measurement": "IC50", "setting": "[4]; [7]", "result": 2.1, "unit": "µM"}]}, {"smiles": "CS(=O)(=O)c1ccc(C2=C(c3ccc4c(c3)OCO4)CCC2)cc1", "note": "[Example 35, 5-[2-[4-(Methylsulfonyl)phenyl]cyclopenten-1-yl]-1,3-benzodioxole]", "values": [{"measurement": "inhibition in vivo at 30 mg/kg", "setting": "[2]", "result": 6, "unit": "%"}]}, {"smiles": "Cc1ccc(C2=C(c3ccc(S(C)(=O)=O)cc3)CCC2)cn1", "note": "[Example 36]", "values": [{"measurement": "inhibition in vivo at 30 mg/kg", "setting": "[2]", "result": 33, "unit": "%"}, {"measurement": "IC50", "setting": "[4]; [7]", "result": "> 100", "unit": "µM"}]}, {"smiles": "O=S(=O)(CF)c1ccc(C2=C(c3ccc(F)cc3)CCC2)cc1", "note": "[Example 37, 1-[2-(4-Fluorophenyl)cyclopenten-1-yl]-4-(fluoromethylsulfonyl)benzene]", "values": [{"measurement": "IC50", "setting": "[5]", "result": "< 0.1", "unit": "µM"}, {"measurement": "IC50", "setting": "[4]; [7]", "result": "> 100", "unit": "µM"}]}, {"smiles": "CS(=O)(=O)Nc1ccc([N+](=O)[O-])cc1OC1CCCCC1", "note": "[N-(2-cyclohexyloxy-4-nitrophenyl)methanesulfonamide]", "values": [{"measurement": "inhibition of the COX II enzyme", "setting": "[1]", "result": "inhibits the COX II enzyme"}]}]}
